Here are results for four molecules from paper PMC6757289, “Design and Characterization of SGK3-PROTAC1, an Isoform Specific SGK3 Kinase PROTAC Degrader” (ACS Chemical Biology, 2019).

Common to all, as to experiment: kinase profiling panel
What all share (assay type): biochemical
Common to all, as to settings: read-out: % Activity Remaining

The target of experiment [1] is T1, TAO1 (Homo sapiens, UniProt Q7L7X3).
T1 sequence (Q7L7X3 1-1001): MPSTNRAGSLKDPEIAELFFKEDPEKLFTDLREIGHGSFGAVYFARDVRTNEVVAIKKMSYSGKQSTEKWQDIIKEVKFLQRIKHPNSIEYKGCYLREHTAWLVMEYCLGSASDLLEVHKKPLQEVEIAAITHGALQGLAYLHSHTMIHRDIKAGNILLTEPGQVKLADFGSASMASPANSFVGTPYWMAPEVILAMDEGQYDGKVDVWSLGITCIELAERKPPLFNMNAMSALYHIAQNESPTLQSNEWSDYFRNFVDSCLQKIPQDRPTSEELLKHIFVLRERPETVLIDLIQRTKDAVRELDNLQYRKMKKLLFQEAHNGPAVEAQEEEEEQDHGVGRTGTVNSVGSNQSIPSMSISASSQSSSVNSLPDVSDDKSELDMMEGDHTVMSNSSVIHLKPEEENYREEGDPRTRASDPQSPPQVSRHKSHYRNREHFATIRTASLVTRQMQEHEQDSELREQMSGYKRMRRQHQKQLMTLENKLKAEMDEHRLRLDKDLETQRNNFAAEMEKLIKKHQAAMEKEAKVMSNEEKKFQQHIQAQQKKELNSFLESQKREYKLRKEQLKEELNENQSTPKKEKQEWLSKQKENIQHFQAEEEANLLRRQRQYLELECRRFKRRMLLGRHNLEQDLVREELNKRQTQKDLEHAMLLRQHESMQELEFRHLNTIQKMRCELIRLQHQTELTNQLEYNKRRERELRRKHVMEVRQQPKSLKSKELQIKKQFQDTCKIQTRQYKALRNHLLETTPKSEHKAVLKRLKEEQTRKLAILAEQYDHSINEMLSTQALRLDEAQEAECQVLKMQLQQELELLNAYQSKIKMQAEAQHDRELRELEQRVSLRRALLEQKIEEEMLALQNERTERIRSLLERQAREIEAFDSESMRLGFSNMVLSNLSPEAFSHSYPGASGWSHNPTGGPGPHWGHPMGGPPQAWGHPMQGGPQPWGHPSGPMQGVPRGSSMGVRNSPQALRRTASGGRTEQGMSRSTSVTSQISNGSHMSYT
From the text:
(§1) Protein kinase profiling against a Dundee panel of 140 protein kinases was undertaken at the International Centre for Protein Kinase Profiling. The result for each kinase was presented as a mean kinase activity of the reaction taken in triplicate relative to a control sample treated with DMSO. Assay conditions and abbreviations are available at http://www.kinase-screen.mrc.ac.uk.

For experiment [2], the target named is MELK (Homo sapiens, UniProt Q14680).
MELK, sequence (Q14680 whole entry): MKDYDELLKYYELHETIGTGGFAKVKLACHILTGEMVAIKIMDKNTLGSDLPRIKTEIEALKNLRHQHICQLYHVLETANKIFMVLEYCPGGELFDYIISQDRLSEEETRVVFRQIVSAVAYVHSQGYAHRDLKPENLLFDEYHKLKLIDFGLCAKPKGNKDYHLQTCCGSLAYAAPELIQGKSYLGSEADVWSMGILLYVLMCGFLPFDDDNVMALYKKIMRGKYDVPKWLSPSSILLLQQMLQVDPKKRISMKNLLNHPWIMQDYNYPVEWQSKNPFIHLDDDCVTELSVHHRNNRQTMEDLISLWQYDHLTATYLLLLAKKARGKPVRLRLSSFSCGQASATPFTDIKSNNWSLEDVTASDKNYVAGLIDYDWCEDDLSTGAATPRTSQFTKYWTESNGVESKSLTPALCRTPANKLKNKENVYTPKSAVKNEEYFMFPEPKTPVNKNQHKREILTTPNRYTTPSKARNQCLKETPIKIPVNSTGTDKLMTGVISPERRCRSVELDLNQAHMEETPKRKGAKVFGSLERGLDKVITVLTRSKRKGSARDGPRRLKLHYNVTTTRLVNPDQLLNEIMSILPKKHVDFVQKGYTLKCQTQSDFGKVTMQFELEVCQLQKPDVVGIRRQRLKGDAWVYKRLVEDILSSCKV
Excerpt: as §1

Experiment [3] addresses TTBK1 (Homo sapiens, UniProt Q5TCY1).
Excerpt: as §1

For experiment [4], the target named is TrkA (Homo sapiens, UniProt P04629).
TrkA, sequence (P04629 33-796): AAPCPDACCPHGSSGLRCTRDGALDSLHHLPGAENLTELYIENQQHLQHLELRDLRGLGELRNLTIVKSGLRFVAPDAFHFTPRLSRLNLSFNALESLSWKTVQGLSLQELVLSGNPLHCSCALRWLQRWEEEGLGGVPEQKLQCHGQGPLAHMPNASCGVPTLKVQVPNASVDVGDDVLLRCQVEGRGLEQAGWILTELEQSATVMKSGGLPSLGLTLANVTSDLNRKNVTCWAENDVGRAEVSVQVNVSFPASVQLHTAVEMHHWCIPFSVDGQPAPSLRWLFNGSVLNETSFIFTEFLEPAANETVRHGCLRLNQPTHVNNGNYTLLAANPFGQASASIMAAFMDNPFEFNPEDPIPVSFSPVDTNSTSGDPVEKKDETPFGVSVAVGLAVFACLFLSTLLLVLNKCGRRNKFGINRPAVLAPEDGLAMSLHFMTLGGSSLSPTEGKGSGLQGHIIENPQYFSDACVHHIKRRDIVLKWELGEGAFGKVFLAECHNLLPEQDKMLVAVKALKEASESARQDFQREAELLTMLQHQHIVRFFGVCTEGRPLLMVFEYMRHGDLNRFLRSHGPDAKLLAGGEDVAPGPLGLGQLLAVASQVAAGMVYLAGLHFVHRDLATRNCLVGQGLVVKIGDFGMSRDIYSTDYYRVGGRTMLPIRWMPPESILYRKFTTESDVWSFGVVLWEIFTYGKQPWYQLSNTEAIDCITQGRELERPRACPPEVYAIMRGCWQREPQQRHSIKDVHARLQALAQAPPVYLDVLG
Excerpt: as §1

Experiment [5] concerns the target PKC gamma (Homo sapiens, UniProt P05129).
Excerpt: as §1

In experiment [6] the target is MARK1 (Homo sapiens, UniProt Q9P0L2).
MARK1, sequence (Q9P0L2 whole entry): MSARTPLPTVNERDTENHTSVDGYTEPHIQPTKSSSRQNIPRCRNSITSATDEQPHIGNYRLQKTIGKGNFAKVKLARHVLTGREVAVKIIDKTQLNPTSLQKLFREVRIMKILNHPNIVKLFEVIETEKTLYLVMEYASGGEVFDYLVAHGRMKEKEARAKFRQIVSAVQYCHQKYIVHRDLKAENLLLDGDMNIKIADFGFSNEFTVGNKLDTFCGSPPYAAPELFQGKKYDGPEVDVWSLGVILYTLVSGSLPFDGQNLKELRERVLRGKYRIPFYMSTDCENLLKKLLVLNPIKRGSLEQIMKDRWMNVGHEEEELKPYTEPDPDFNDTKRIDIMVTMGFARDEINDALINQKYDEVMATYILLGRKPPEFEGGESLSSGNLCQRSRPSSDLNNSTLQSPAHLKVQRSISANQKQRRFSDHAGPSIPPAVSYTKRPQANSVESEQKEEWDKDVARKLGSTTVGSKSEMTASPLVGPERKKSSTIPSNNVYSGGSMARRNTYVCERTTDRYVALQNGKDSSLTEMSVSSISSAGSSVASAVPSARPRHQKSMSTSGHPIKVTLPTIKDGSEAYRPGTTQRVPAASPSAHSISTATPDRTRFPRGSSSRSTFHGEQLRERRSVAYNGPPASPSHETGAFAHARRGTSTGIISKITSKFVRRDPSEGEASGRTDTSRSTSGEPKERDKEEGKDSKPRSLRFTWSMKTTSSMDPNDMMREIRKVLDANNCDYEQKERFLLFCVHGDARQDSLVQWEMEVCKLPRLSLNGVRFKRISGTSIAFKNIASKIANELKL
Excerpt: as §1

Experiment [7] concerns the target JAK2 (Homo sapiens, UniProt O60674).
Excerpt: as §1

For experiment [8], the target named is IRAK1 (Homo sapiens, UniProt P51617).
IRAK1, sequence (P51617 whole entry): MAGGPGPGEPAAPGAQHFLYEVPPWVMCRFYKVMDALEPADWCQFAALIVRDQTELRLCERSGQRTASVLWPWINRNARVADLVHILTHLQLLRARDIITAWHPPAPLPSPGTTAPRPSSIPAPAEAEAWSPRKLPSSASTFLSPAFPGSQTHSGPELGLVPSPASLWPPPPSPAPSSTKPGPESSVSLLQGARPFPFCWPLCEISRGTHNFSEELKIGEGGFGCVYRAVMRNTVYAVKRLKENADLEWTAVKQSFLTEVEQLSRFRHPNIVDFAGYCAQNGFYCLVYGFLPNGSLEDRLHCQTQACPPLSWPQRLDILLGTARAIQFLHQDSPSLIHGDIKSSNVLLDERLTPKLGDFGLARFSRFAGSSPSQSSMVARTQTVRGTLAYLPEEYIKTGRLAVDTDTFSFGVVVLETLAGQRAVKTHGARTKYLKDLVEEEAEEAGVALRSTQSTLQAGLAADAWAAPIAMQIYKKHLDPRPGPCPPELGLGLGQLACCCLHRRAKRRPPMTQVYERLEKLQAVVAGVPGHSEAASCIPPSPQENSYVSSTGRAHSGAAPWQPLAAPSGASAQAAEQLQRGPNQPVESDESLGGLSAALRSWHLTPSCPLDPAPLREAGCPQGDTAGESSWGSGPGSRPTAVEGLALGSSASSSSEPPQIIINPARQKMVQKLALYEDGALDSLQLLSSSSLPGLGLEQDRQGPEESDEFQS
Excerpt: as §1

Experiment [9] has as its target T2, PKC zeta (Homo sapiens, UniProt Q05513).
T2 sequence (Q05513 1-592): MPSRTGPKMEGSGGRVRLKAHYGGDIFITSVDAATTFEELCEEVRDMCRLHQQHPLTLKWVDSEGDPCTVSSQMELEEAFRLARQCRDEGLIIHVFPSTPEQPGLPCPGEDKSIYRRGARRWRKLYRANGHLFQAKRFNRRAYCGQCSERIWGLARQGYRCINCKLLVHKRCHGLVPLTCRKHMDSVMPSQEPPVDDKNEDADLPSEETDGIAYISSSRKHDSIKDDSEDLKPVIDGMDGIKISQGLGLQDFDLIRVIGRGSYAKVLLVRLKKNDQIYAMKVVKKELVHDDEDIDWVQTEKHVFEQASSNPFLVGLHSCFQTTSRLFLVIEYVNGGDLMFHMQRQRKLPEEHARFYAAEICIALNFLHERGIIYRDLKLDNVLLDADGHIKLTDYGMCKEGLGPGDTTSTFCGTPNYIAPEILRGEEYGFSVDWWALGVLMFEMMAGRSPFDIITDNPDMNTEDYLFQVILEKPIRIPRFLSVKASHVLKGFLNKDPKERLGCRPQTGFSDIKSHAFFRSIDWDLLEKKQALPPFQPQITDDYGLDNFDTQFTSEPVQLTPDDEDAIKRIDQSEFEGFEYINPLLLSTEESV
Excerpt: as §1

In experiment [10] the target is VEGFR1 (Homo sapiens, UniProt P17948).
VEGFR1, sequence (P17948 27-1338): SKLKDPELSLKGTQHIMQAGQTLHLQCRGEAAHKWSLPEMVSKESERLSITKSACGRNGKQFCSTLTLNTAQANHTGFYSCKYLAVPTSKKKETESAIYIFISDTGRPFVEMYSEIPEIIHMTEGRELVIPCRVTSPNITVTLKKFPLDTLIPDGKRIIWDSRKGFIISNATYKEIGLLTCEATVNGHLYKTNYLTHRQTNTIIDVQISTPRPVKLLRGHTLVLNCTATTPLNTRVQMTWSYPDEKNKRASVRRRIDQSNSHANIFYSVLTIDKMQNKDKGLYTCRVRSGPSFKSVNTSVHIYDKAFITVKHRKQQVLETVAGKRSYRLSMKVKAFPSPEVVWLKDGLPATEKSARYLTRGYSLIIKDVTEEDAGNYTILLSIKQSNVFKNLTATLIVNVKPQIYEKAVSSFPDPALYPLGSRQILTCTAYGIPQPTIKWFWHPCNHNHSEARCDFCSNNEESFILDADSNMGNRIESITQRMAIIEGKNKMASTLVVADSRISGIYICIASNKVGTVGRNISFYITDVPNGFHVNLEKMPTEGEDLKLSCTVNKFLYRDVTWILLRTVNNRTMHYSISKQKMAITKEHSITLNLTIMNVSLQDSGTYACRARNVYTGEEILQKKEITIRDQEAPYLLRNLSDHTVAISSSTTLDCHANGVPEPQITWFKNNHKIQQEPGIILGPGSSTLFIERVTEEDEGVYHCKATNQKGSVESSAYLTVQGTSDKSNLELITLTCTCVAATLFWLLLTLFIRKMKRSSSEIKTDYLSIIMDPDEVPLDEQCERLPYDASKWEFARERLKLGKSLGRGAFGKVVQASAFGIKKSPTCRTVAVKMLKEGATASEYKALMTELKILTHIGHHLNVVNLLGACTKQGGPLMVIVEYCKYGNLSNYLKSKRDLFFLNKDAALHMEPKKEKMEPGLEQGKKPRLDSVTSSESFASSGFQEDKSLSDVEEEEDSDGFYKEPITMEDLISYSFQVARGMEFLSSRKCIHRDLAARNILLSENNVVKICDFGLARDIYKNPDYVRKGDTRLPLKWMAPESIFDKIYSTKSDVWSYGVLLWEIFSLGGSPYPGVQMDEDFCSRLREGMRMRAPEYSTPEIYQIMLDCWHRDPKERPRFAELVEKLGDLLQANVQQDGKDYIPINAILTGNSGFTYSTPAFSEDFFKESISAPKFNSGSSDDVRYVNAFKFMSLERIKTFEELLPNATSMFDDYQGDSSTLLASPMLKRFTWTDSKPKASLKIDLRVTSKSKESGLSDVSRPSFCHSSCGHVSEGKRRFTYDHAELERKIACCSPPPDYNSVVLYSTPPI
Excerpt: as §1

Experiment [11] deals with T3, MARK4 (Homo sapiens, UniProt Q96L34).
T3 sequence (Q96L34 1-752): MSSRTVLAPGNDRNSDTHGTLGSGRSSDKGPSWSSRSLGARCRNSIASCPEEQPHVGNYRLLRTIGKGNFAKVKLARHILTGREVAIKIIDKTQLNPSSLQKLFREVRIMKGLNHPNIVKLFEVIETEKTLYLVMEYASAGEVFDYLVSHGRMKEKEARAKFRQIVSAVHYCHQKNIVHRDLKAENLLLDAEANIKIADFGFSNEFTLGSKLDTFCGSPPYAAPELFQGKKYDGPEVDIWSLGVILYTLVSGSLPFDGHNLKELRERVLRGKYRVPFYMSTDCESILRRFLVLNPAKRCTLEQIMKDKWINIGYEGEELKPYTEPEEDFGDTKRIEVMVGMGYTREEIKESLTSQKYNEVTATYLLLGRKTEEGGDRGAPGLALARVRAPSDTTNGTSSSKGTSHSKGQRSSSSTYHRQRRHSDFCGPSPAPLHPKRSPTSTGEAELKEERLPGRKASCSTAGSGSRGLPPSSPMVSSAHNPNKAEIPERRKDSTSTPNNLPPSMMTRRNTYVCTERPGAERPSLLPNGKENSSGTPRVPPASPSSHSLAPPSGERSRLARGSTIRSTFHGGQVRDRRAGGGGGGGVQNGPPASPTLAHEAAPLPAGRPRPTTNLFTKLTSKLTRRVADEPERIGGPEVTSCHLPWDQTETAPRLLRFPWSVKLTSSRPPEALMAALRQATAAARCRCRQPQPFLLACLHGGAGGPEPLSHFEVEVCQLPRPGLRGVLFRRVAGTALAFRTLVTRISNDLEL
Excerpt: as §1

The structures appear in SMILES notation. Read-outs that look alike come from different tables or passages of the source.

On to `COc1ccc(Cl)c(S(=O)(=O)Nc2ccc(-c3nc(OC[C@H]4CNCCO4)c4c(C)n[nH]c4n3)cc2)c1` [290-R, reference compound], for which the remaining activity at 1 µM was determined as 110% in experiment [1]; 11% in [2]; 109% in experiment [3]; 104% in experiment [4]; 101% in experiment [5]; 115% in experiment [6]. Moreover, the remaining activity at 1 µM stood at 112% in [7]; 93% in experiment [8]; 110% in [9]; 82% in experiment [10]; 98% in experiment [11].

Take `Cc1ccc(F)c(S(=O)(=O)Nc2ccc(-c3nc(OC[C@H]4CNCCO4)c4cn[nH]c4n3)cc2)c1` [308-R, reference compound]: the remaining activity at 1 µM in experiment [1] turned out to be 123%; in [2], 19%; in [3] (1 µM), 91%; in experiment [4], 71%; in experiment [5] it was 90%; in [6], 109%. The remaining activity at 1 µM is 94% in experiment [7]; 88% in [8]; 72% in experiment [9]; 95% in experiment [10]; 73% in experiment [11].

With `Cc1ccc(F)c(S(=O)(=O)Nc2ccc(-c3nc(OC[C@H]4CN(CCCCCCOCCOCCOCC(=O)N[C@H](C(=O)N5C[C@H](O)C[C@H]5C(=O)NCc5ccc(-c6scnc6C)cc5)C(C)(C)C)CCO4)c4cn[nH]c4n3)cc2)c1` [SGK3-PROTAC1], the remaining activity at 1 µM in [1] (1 µM) was determined as 99%; in [2] (1 µM) it was 91%; in experiment [3] (1 µM), 105%; in [4] (1 µM), 112%; in experiment [5] (1 µM) it was 103%; in experiment [6] (1 µM), 99%. The remaining activity at 1 µM in [7] (1 µM) worked out at 95%; in experiment [8] (1 µM), 98%; in experiment [9] (1 µM), 96%; in experiment [10] (1 µM), 120%; in [11] (1 µM), 105%.

For the molecule `Cc1ccc(F)c(S(=O)(=O)Nc2ccc(-c3nc(OC[C@H]4CN(CCCCCCOCCOCCOCC(=O)N[C@H](C(=O)N5C[C@@H](O)C[C@H]5C(=O)NCc5ccc(-c6scnc6C)cc5)C(C)(C)C)CCO4)c4cn[nH]c4n3)cc2)c1` [cisSGK3-PROTAC1], the remaining activity at 1 µM in [1] (1 µM) is 105%; in [2] (1 µM), 100%; in experiment [3] (1 µM) it was 113%; in experiment [4] (1 µM) it was 102%; in [5] (1 µM), 100%; in [6] (1 µM), 93%. Besides, the remaining activity at 1 µM in experiment [7] (1 µM) was 94%; in [8] (1 µM) it was 105%; in [9] (1 µM), 110%; in [10] (1 µM), 103%; in experiment [11] (1 µM), 100%.

Usually remaining activity stands for the signal under treatment as a percentage of the control signal.
